Measured values taken from patent publication US10786690B2, “Amide derivatives of polycaffeoylquinic acids, process for producing same and uses thereof” (TEMISIS, priority 2016, dated 2020).

Test system: female Balb/c mice
Test: Imiquimod-induced psoriasis in Balb/c mice, PASI scoring
Assay type: in vivo, mouse
Description: The study is performed on 40 female Balb/c mice, weighing roughly 18-20 g and randomized by weight into 5 groups (n=8) as function of the treatments, under controlled temperature (24±2° C.) and humidity (50±20%) conditions and with a 12-hour reversed light cycle (light from 20:00 to 08:00) (food and water ad libitum).
The compounds to be tested are as follows: • Excipial® neutral ointment (control) • PAT1657 (octyl-isochlorogenamide A) incorporated at 1.33% or 2.67% by mass in Excipial® ointment • Aldara® cream containing 5% imiquimod, an inducer of psoriasis • Dermoval® cream containing 0.05% clobetasol propionate and used for topical treatment of psoriasis (reference product)
The treatment groups are distributed as follows: • Group 1: no induction of psoriasis but cutaneous application of neutral ointment from day 1 to day 10 and treatment with Excipial® neutral ointment from day 7 to day 10 (negative control) (EP/EP); • Group 2: induction of psoriasis by cutaneous application of Aldara® cream containing imiquimod from day 1 to day 10 and treatment with Excipial® neutral ointment from day 7 to day 10 (positive control) (ALD/EP); • Group 3: induction of psoriasis by cutaneous application of Aldara® cream containing imiquimod from day 1 to day 10 and treatment with neutral ointment containing 1.33% compound PAT1657 from day 7 to day 10 (ALD/PAT1657-1.33%); • Group 4: induction of psoriasis by cutaneous application of Aldara® cream containing imiquimod from day 1 to day 10 and treatment with neutral ointment containing 2.67% compound PAT1657 from day 7 to day 10 (ALD/PAT1657-2.67%); • Group 5: induction of psoriasis by cutaneous application of Aldara® cream containing imiquimod from day 1 to day 10 and treatment with Dermoval® cream from day 7 to day 10 (ALD/Dermoval®). Induction and Maintenance of Psoriasis
To perform the induction of psoriasis, it was necessary to remove the hair from the backs of the animals by shaving and plucking to have direct access to the skin tissue. Psoriasis was induced in all mice in groups 2 to 5 by daily cutaneous application for 10 days, from day 1 to day 10, of roughly 70 mg of Aldara® cream. The cream was applied to the shaved backs of the mice with a silk brush. For the mice in group 1, daily cutaneous application of Excipial® neutral ointment was carried out under the same conditions: roughly 70 mg was applied for 10 days, from day 1 to day 10, in the morning using a silk brush.
The ointments containing compound PAT1657 at the two doses to be tested, Excipial® neutral ointment and Dermoval® cream, were administered by cutaneous applications for 4 days, from day 7 to day 10, on the backs of the mice in the psoriasis induction region. For each application, roughly 100 mg of ointment or cream was applied with a silk brush, at least 4 hours after application of Aldara® cream or Excipial® neutral ointment for induction or not of psoriasis.
The psoriasis area and severity index (PASI) was calculated daily throughout the experiment from day 1 to day 11, based on the following three parameters: • Presence of erythema, i.e. skin redness, in the psoriasis induction region, scored as follows: 0=no or no further erythema; 1=mild erythema; 2=moderate erythema; 3=severe erythema; 4=very severe erythema. • Degree of induration, i.e. skin hardening and thickening, in the psoriasis induction region, scored as follows: 0=no or no further induration; 1=mild induration; 2=moderate induration; 3=severe induration; 4=very severe induration. • Degree of desquamation, i.e. presence of plaques on the skin surface, in the psoriasis induction region, scored as follows: 0=no or no further desquamation; 1=mild desquamation; 2=moderate desquamation; 3=severe desquamation; 4=very severe desquamation.
The psoriasis area and severity index is the sum of the scores for these three parameters. […]

[1] = day 8, 1.33% in ointment, vs ALD/EP group, p=0.001
[2] = day 10, 1.33% in ointment, vs ALD/EP group, p=0.001
[3] = day 10, 2.67% in ointment, vs ALD/EP group, p=0.001
[4] = day 11, 1.33% in ointment, vs ALD/EP group, p=0.001
[5] = day 11, 2.67% in ointment, vs ALD/EP group, p=0.001

SMILES: CCCCCCCCNC(=O)[C@]1(O)C[C@@H](OC(=O)/C=C/c2ccc(O)c(O)c2)[C@@H](O)[C@H](OC(=O)/C=C/c2ccc(O)c(O)c2)C1 [PAT1657, (2E,2′E)-((1R,2S,3R,5S)-2,5-dihydroxy-5-(octylcarbamoyl)cyclohexane-1,3-diyl) bis(3-(3,4-dihydroxyphenyl)acrylate)]
- mean psoriasis area and severity index (PASI) [1]: significantly lower
- mean score for degree of induration in the psoriasis induction region [1]: significantly lower
- mean score for presence of erythema in the psoriasis induction region [1]: significantly lower
- mean score for degree of desquamation in the psoriasis induction region (day 8, 1.33% in ointment, vs ALD/EP group, p=0.007): significantly lower
- mean psoriasis area and severity index (PASI) (day 8, 2.67% in ointment, vs ALD/EP group, p=0.001): significantly lower
- mean score for degree of induration in the psoriasis induction region (day 8, 2.67% in ointment, vs ALD/EP group, p=0.004): significantly lower
- mean score for degree of desquamation in the psoriasis induction region (day 8, 2.67% in ointment, vs ALD/EP group, p=0.006): significantly lower
- mean score for presence of erythema in the psoriasis induction region (day 8, 2.67% in ointment, vs ALD/EP group, p=0.007): significantly lower
- mean psoriasis area and severity index (PASI) (day 9, day 10 and day 11, 1.33% in ointment, vs ALD/EP group, p=0.001): significantly lower
- mean psoriasis area and severity index (PASI) (day 9, day 10 and day 11, 2.67% in ointment, vs ALD/EP group, p=0.001): significantly lower
- mean score for degree of induration in the psoriasis induction region (day 9, 1.33% in ointment, vs ALD/Dermoval group, p=0.015): significantly higher
- mean score for degree of induration in the psoriasis induction region (day 9, 1.33% in ointment, vs ALD/EP group, p=0.001): significantly lower
- mean score for presence of erythema in the psoriasis induction region (day 9, 1.33% in ointment, vs ALD/EP group, p=0.002): significantly lower
- mean score for degree of induration in the psoriasis induction region (day 9, 2.67% in ointment, vs ALD/EP group, p=0.001): significantly lower
- mean score for presence of erythema in the psoriasis induction region (day 9, 2.67% in ointment, vs ALD/EP group, p=0.002): significantly lower
- mean score for degree of desquamation in the psoriasis induction region (day 9 and day 10, 1.33% in ointment, vs ALD/EP group, p=0.001): significantly lower
- mean score for degree of desquamation in the psoriasis induction region (day 9 and day 10, 2.67% in ointment, vs ALD/EP group, p=0.001): significantly lower
- mean score for degree of induration in the psoriasis induction region (day 10, 1.33% in ointment, vs ALD/Dermoval group, p=0.025): significantly higher
- mean score for presence of erythema in the psoriasis induction region (day 10, 1.33% in ointment, vs ALD/Dermoval group, p=0.037): significantly lower
- mean score for degree of induration in the psoriasis induction region [2]: significantly lower
- mean score for presence of erythema in the psoriasis induction region [2]: significantly lower
- mean score for degree of induration in the psoriasis induction region (day 10, 2.67% in ointment, vs ALD/Dermoval group, p=0.025): significantly higher
- mean score for presence of erythema in the psoriasis induction region (day 10, 2.67% in ointment, vs ALD/Dermoval group, p=0.079): tendency to be significantly lower
- mean score for degree of induration in the psoriasis induction region [3]: significantly lower
- mean score for presence of erythema in the psoriasis induction region [3]: significantly lower
- mean score for degree of desquamation in the psoriasis induction region (day 11, 1.33% in ointment, vs ALD/Dermoval group): significantly higher
- mean score for presence of erythema in the psoriasis induction region (day 11, 1.33% in ointment, vs ALD/Dermoval group, p=0.001): significantly lower
- mean score for degree of induration in the psoriasis induction region (day 11, 1.33% in ointment, vs ALD/Dermoval group, p=0.063): tendency to be significantly higher
- mean score for degree of desquamation in the psoriasis induction region [4]: significantly lower
- mean score for degree of induration in the psoriasis induction region [4]: significantly lower
- mean score for presence of erythema in the psoriasis induction region [4]: significantly lower
- mean score for presence of erythema in the psoriasis induction region (day 11, 2.67% in ointment, vs ALD/Dermoval group, p=0.014): significantly lower
- mean score for degree of desquamation in the psoriasis induction region (day 11, 2.67% in ointment, vs ALD/Dermoval group, p=0.059): tended to be significantly higher
- mean score for degree of desquamation in the psoriasis induction region [5]: significantly lower
- mean score for degree of induration in the psoriasis induction region [5]: significantly lower
- mean score for presence of erythema in the psoriasis induction region [5]: significantly lower
